Patent publication US11564923B2, “Compounds and pharmaceutical compositions thereof for the treatment of inflammatory disorders” (Galapagos NV, priority 2017, dated 2023)

How the values were obtained:
[1] = biological target: T1, Recombinant human TYK2 catalytic domain (amino acids 871-1187) (Homo sapiens, UniProt P29597); assay: TYK2 ADPglo kinase assay; assay type: biochemical; also: 12 µM ATP
T1 construct: catalytic domain (amino acids 871-1187)
T1 sequence (P29597 871-1187): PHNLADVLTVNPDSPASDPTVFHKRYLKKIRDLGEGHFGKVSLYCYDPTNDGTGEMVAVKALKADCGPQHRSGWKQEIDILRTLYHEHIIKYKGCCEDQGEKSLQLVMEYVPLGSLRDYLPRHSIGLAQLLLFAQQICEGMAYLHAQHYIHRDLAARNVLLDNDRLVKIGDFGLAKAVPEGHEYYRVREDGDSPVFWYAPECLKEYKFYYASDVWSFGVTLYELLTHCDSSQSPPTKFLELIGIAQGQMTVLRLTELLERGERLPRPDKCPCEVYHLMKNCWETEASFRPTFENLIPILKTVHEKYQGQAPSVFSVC
Protocol: After 120 min at room temperature, reactions were stopped and the remaining ATP is depleted by adding 5 μL/well of ADP Glo Reagent (Promega, catalog number V912B). After 40 min at room temperature, 10 μl Kinase Detection Reagent (Kinase Detection Substrate (Promega, catalog number V914B) dissolved in Kinase Detection Buffer (Promega, catalog number V913B)) is added to convert ADP to ATP and to measure this newly synthesized ATP in a luciferase/luciferin reaction. Readout is performed after 30 min incubation at room temperature using the Envision. Kinase activity is calculated by subtracting the relative light units (RLU) obtained in the presence of a positive control inhibitor (10 μM staurosporine) from the RLU obtained in the presence of vehicle. The ability of a test compound to inhibit this activity (or percentage inhibition) is determined as:
RLU test compound=RLU determined for sample with test compound present
RLU control=RLU determined for sample with positive control inhibitor
RLU vehicle=RLU determined in the presence of vehicle
Dose dilution series were prepared for the compounds enabling the testing of dose-response effects in the TYK2 assay and the calculation of the IC50 for the compound. Each compound is routinely tested at concentration of 20 μM followed by a 1/5 serial dilution, 10 points in a final concentration of 1% DMSO. […] The data are expressed as the average IC50 from the assays.

[2] = system: IFNα activation of STAT1 in PBMC; assay: IFNα activation of STAT1 in PBMC; assay type: cell-based; conditions: Homo sapiens; IFNα activation of STAT1 in PBMC; average IC50; read-out: IFNα signaling inhibitory potency IC50
Outline: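 Human PBMC, with red cells lysed by NH4Cl, were pre-treated with compound for 30 min at 37 °C and 5% CO2. They were then stimulated for 30 min with recombinant human IFNα at 5 ng/mL final.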

[3] = system: IL-12 activation of STAT4 in NK-92 cells; assay: IL-12 activation of STAT4 in NK-92 cells using AphaLISA SureFire technology; assay type: cell-based; conditions: Homo sapiens, NK92; IL-12 activation of STAT4 in NK-92 cells, AlphaLISA SureFire; average IC50; read-out: IL12 pSTAT4 IC50
Outline: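 NK-92 cells, starved of rhIL-2 overnight, were stimulated with rhIL-12 for 30 min at 37 °C with test compounds, then lysed. Phospho-STAT4 (Tyr693) was read by AlphaLISA SureFire. Percent inhibition versus the vehicle-plus-trigger signal was fitted by sigmoidal nonlinear regression to give IC50, averaged over experiments.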

[4] = system: IFNα stimulation, Phospho-STAT1 on CD4+ cells in human whole blood; assay: Human whole blood assay (hWBA), IFNα stimulation; assay type: cell-based; conditions: Universal type I IFN 1000 U/mL, pSTAT1 on CD4+ cells, read-out: IFN α IC50
Protocol: (§1) A flow cytometry analysis is performed to establish JAK1 and TYK2 compound potency ex vivo using human whole blood. Therefore, blood is taken from human volunteers who gave informed consent, then equilibrated for 30 min at 37° C. under gentle rocking and aliquoted in Eppendorf tubes. Compound is added at different concentrations and incubated at 37° C. for 30 min under gentle rocking and subsequently stimulated for 20 min at 37° C. under gentle rocking with interleukin 6 (IL-6) for JAK-dependent pathway stimulation or IFNα for TYK2-dependent pathway stimulation. Phospho-STAT1 is then evaluated using FACS analysis.
(§2) The remaining diluted Lyse/Fix buffer is discarded.
(§3) A 3-fold dilution series of the compound is prepared in DMSO (10 mM stock solution). Control-treated samples received DMSO instead of compound. All samples are incubated with a 1% final DMSO concentration.
Human blood is collected in heparinized tubes. The blood is divided in aliquots of 148.5 μL. Then, 1.5 μL of the test compound dilution is added to each blood aliquot and the blood samples are incubated for 30 min at 37° C. under gentle rocking. One and a half microliter of 10-fold diluted IL-6 stock solution or Universal type 1 IFN is added to the blood samples (final concentration 10 ng/mL and 1000 U/mL, respectively) and samples are incubated at 37° C. for 20 min under gentle rocking.
At the end of the stimulation period, 3 mL of 1× pre-warmed Lyse/Fix buffer is immediately added to the blood samples, vortexed briefly and incubated for 15 min at 37° C. in a water bath in order to lyse red blood cells and fix leukocytes.
Tubes are centrifuged for 5 min at 400×g at 4° C. The cell pellet is washed with 3 mL of cold 1×PBS, and after centrifugation the cell pellet is resuspended in 100 μL of ice-cold 1×PBS and 900 μL ice-cold 100% MeOH is added. Cells are then incubated at 4° C. for 30 min for permeabilization.
Permeabilized cells are then washed with 1×PBS containing 3% BSA and finally resuspended in 80 μL of 1×PBX containing 3% BSA.
(§4) Cells are then washed once with 1×PBS and analyzed on a FACSCanto II flow cytometer (BD Biosciences).
(§5) 50,000 total events are counted and Phospho-STAT1 positive cells are measured after gating on CD4+ cells, in the lymphocyte gate.

[5] = biological target: T1, Recombinant human TYK2 catalytic domain (amino acids 871-1187); assay: TYK2 radioactive assay polyGT substrate; assay type: biochemical; also: 0.1 µM ATP
Outline: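 Reaction at 30° C. for 120 min, ended with 150 mM phosphoric acid, washed, counted; percent inhibition scaled between vehicle and 10 μM staurosporine cpm.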

[6] = system: IL-6 stimulation, Phospho-STAT1 on CD4+ cells in human whole blood; assay: Human whole blood assay (hWBA), IL-6 stimulation; assay type: cell-based; conditions: IL-6 10 ng/mL, pSTAT1 on CD4+ cells, read-out: IL6 IC50
Protocol: as §1, §2, §3
Human blood is collected in heparinized tubes. The blood is divided in aliquots of 148.5 μL. Then, 1.5 μL of the test compound dilution is added to each blood aliquot and the blood samples are incubated for 30 min at 37° C. under gentle rocking. […]
as §4, §5

Row | Structure (SMILES) | IC50 [1] [nM] | IC50 [3] [nM] | IC50 [4] [nM] | IC50 [5] [nM] | IC50 [6] [nM] | IC50 [2] [nM]
1 | Cc1cc(C#N)ncc1Oc1cc(Nc2ccc(C(=O)N3CC(C(C)(C)O)C3)cn2)c2ncn(C)c2n1 [Compound 102, 5-[7-[[5-[3-(1-hydroxy-1-methyl-ethyl)azetidine-1-carbonyl]-2-pyridyl]amino]-3-methyl-imidazo[4,5-b]pyridin-5-yl]oxy-4-methyl-pyridine-2-carbonitrile] | – | 302 | 175 | 1.98 | – | 75
2 | Cc1cc(C#N)ncc1Oc1cc(Nc2ccc(C(=O)N3CC(N(C)C)C3)cn2)c2ncn(C)c2n1 [Compound 106, 5-[7-[[5-[3-(dimethylamino)azetidine-1-carbonyl]-2-pyridyl]amino]-3-methyl-imidazo[4,5-b]pyridin-5-yl]oxy-4-methyl-pyridine-2-carbonitrile] | – | 150 | 533 | 1.43 | – | 102
3 | Cc1cc(C#N)ncc1Oc1cc(Nc2ccc(C(=O)N3CC[C@H](O)C3)cn2)c2ncn(C)c2n1 [Compound 112, 5-[7-[[5-[(3S)-3-hydroxypyrrolidine-1-carbonyl]-2-pyridyl]amino]-3-methyl-imidazo[4,5-b]pyridin-5-yl]oxy-4-methyl-pyridine-2-carbonitrile] | – | 1100 | 447 | 4.29 | – | 130
4 | Cc1cc(C#N)ncc1Oc1cc(Nc2ccc(C(=O)N3CCN(C)CC3)nn2)c2ncn(C)c2n1 [Compound 150, 4-methyl-5-[3-methyl-7-[[6-(4-methylpiperazine-1-carbonyl)pyridazin-3-yl]amino]imidazo[4,5-b]pyridin-5-yl]oxypyridine-2-carbonitrile] | 1.1 | 1020 | 269 | – | 6810 | 278
5 | Cc1cc(C#N)ncc1Oc1cc(Nc2ccc(N3CCOC(CO)C3)nn2)c2ncn(C)c2n1 (stereo not drawn) [Compound 169, 5-[7-[[6-[2-(hydroxymethyl)morpholin-4-yl]pyridazin-3-yl]amino]-3-methylimidazo[4,5-b]pyridin-5-yl]oxy-4-methylpyridine-2-carbonitrile] | 1.47 | 665 | – | – | – | 147
6 | Cc1cc(C#N)ncc1Oc1cc(Nc2ccc(N3CCOC(C)(C)C3)nn2)c2ncn(C)c2n1 [Compound 175, 5-[7-[[6-(2,2-dimethylmorpholin-4-yl)pyridazin-3-yl]amino]-3-methylimidazo[4,5-b]pyridin-5-yl]oxy-4-methylpyridine-2-carbonitrile] | 2.64 | 137 | – | – | – | 94

These reach a lower IC50 [3]. Values come first.

Row | IC50 [1] [nM] | IC50 [3] [nM] | IC50 [4] [nM] | IC50 [5] [nM] | IC50 [6] [nM] | Structure (SMILES) | IC50 [2] [nM]
7 | 0.93 | 40.5 | 757 | – | – | Cc1cc(C#N)ncc1Oc1cc(Nc2ccc(N3C[C@@H](C)O[C@H](C)C3)nn2)c2ncn(C)c2n1 (racemic) [Compound 176, 4-methyl-5-[3-methyl-7-[[6-[rac-(2R,6R)-2,6-dimethylmorpholin-4-yl]pyridazin-3-yl]amino]imidazo[4,5-b]pyridin-5-yl]oxypyridine-2-carbonitrile] | 66.5
8 | 0.48 | 56 | – | 0.84 | – | Cc1cc(C#N)ncc1Oc1cc(Nc2ccc(C(=O)N3CCN(C4CC4)CC3)cn2)c2ncn(C)c2n1 [Compound 48, 5-[7-[[5-(4-cyclopropylpiperazine-1-carbonyl)pyridin-2-yl]amino]-3-methylimidazo[4,5-b]pyridin-5-yl]oxy-4-methylpyridine-2-carbonitrile] | 63
9 | 2.28 | 97 | 1450 | – | – | Cc1cc(C#N)ncc1Oc1cc(Nc2ccc(N3C[C@H](C)O[C@@H](C)C3)nn2)c2ncn(C)c2n1 [Compound 166, 5-[7-[[6-[(2S,6S)-2,6-dimethylmorpholin-4-yl]pyridazin-3-yl]amino]-3-methylimidazo[4,5-b]pyridin-5-yl]oxy-4-methylpyridine-2-carbonitrile] | 84
10 | 2.39 | 87 | 1070 | – | – | Cc1cc(C#N)ncc1Oc1cc(Nc2ccc(N3C[C@@H](C)O[C@H](C)C3)nn2)c2ncn(C)c2n1 [Compound 168, 5-[7-[[6-[(2R,6R)-2,6-dimethylmorpholin-4-yl]pyridazin-3-yl]amino]-3-methylimidazo[4,5-b]pyridin-5-yl]oxy-4-methylpyridine-2-carbonitrile] | 82
11 | 1.46 | 73 | – | – | – | Cc1cc(C#N)ncc1Oc1cc(Nc2ccc(N3CC4CCC(C3)O4)nn2)c2ncn(C)c2n1 [Compound 170, 4-methyl-5-[3-methyl-7-[[6-(8-oxa-3-azabicyclo[3.2.1]octan-3-yl)pyridazin-3-yl]amino]imidazo[4,5-b]pyridin-5-yl]oxypyridine-2-carbonitrile] | 83
12 | 0.88 | 127 | – | – | – | Cc1cc(C#N)ncc1Oc1cc(Nc2ccc(N3CCOC(C#N)C3)nn2)c2ncn(C)c2n1 (stereo not drawn) [Compound 171, 4-[6-[[5-(6-cyano-4-methylpyridin-3-yl)oxy-3-methylimidazo[4,5-b]pyridin-7-yl]amino]pyridazin-3-yl]morpholine-2-carbonitrile] | 45
13 | 0.92 | 58 | – | – | – | Cc1cc(C#N)ncc1Oc1cc(Nc2ccc(N3CCO[C@H](C)C3)nn2)c2ncn(C)c2n1 [Compound 172, 4-methyl-5-[3-methyl-7-[[6-[(2R)-2-methylmorpholin-4-yl]pyridazin-3-yl]amino]imidazo[4,5-b]pyridin-5-yl]oxypyridine-2-carbonitrile] | 66
14 | 1.03 | 61 | – | – | – | Cc1cc(C#N)ncc1Oc1cc(Nc2ccc(N3C[C@@H]4C[C@H]3CO4)nn2)c2ncn(C)c2n1 [Compound 174, 4-methyl-5-[3-methyl-7-[[6-[(1S,4S)-2-oxa-5-azabicyclo[2.2.1]heptan-5-yl]pyridazin-3-yl]amino]imidazo[4,5-b]pyridin-5-yl]oxypyridine-2-carbonitrile] | 72
